Laboratory results reported in ChEMBL document CHEMBL4834480, “Discovery of 3,5-Dimethyl-4-Sulfonyl-1H-Pyrrole-Based Myeloid Cell Leukemia 1 Inhibitors with High Affinity, Selectivity, and Oral Bioavailability” (J Med Chem, 2021).
Activity calls are given as the source filed them. The rule behind the calls is not given here.

Key:
[1] = molecular target: T1, Apoptosis regulator Bcl-2 (Homo sapiens, UniProt P10415); assay: Inhibition of FITC-labeled Bak BH3 peptide binding to GST-tagged BCL2 (1 to 205 residues) (unknown origin) expressed in Escherichia coli BL21 (DE3) at 10 uM incubated for 30 mins fluorescence polarization-based competitive binding assay relative to control
[2] = molecular target: T2, Induced myeloid leukemia cell differentiation protein Mcl-1 (Homo sapiens, UniProt Q07820); assay: Displacement of BAK from MCL1 in human NCI-H929 cells after 4 hrs by co-immunoprecipitation assay; assay type: cell-based; conditions: dose 0.1-0.5 µM
[3] = Intrinsic clearance in human liver microsomes; assay type: ADME, Microsome; conditions: read-out: CLH
[4] = molecular target: T1, Apoptosis regulator Bcl-2; assay: Binding affinity to human partial length BCL2 (M1 to D211 residues) expressed in bacterial expression system by BCL2SCAN assay
[5] = Toxicity in BALB/c nude mouse xenografted with human MV4-11 cells assessed as effect on kidney weight at 60 mg/kg, po administered every two days for 14 days; assay type: organism-based; conditions: in vivo, 336 h, time 14 day
[6] = AUCt in Sprague-Dawley rat at 3 mg/kg, iv measured up to 24 hrs by LC-MS/MS analysis; assay type: ADME, organism-based; design: route intravenous, dose 3 mg/kg, time <=24; conditions: in vivo
MV4-11 [7] = assay: Antitumor activity against human MV4-11 cells xenografted in BALB/c nude mouse assessed as induction of tumor necrosis at 20 mg/kg, ip administered every two days for 14 days by hematoxyin-eosin staining based analysis; assay type: functional, organism-based; conditions: time 14.0 day
Homo sapiens = species: Homo sapiens; assay: Selectivity ratio of Kd for human partial length BCL2 (M1 to D211 residues) expressed in bacterial expression system to Kd for human partial length MCL1 ([…] to R329 residues) expressed in bacterial expression system
CYP2C9 = CYP2C9 (Homo sapiens, UniProt P11712); assay: Inhibition of CYP2C9 (unknown origin) at 10 uM preincubated for 5 min followed by NADPH addition and measured after 20 mins by LC-MS/MS analysis relative to control; assay type: ADME; conditions: time 25 min
NCI-H23 = assay: Antiproliferative activity against human NCI-H23 cells assessed as decrease in cell viability measured after 72 hrs by MTT assay; assay type: functional, cell-based; conditions: NCI-H23, 72 h
Bcl-2-like protein 1 = Bcl-2-like protein 1 (Homo sapiens, UniProt Q07817); assay: Binding affinity to human partial length BCL-XL (M1 to R209 residues) expressed in bacterial expression system by BCL2SCAN assay
[8] = Stability of the compound in simulated intestinal fluid assessed as parent compound remaining measured after 6 hrs; assay type: ADME; conditions: read-out: Stabilty
[9] = Toxicity in BALB/c nude mouse xenografted with human MV4-11 cells assessed as effect on heart weight at 20 mg/kg, ip administered every two days for 14 days; assay type: organism-based; conditions: in vivo, 336 h, time 14 day
[10] = Intrinsic clearance in rat liver microsomes; assay type: ADME, Microsome; conditions: read-out: CLH
[11] = molecular target: T2, Induced myeloid leukemia cell differentiation protein Mcl-1; assay: Inhibition of FITC-labeled Bak BH3 peptide binding to GST-tagged MCL1 (171 to 327 residues) (unknown origin) expressed in Escherichia coli BL21 (DE3) incubated for 30 mins fluorescence polarization-based competitive binding assay
NCI-H929 [12] = assay: Antiproliferative activity against human NCI-H929 cells assessed as decrease in cell viability measured after 72 hrs by MTT assay; assay type: functional, cell-based; conditions: NCI-H929, 72 h
[13] = molecular target: T3, Bcl-2-related protein A1 (Homo sapiens) (UniProt Q16548); assay: Inhibition of FITC-labeled Bak BH3 peptide binding to GST-tagged BFL1 (1 to 151 residues) (unknown origin) expressed in Escherichia coli BL21 (DE3) at 10 uM incubated for 30 mins fluorescence polarization-based competitive binding assay relative to control
T3 sequence (whole entry): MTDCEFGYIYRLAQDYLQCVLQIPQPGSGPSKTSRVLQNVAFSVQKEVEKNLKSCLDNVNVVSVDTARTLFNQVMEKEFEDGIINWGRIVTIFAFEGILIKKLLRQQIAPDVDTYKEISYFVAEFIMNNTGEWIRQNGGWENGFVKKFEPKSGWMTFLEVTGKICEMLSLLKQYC

CYP3A4 = CYP3A4 (Homo sapiens, UniProt P08684); assay: Inhibition of CYP3A4 (unknown origin) at 10 uM preincubated for 5 min followed by NADPH addition and measured after 20 mins by LC-MS/MS analysis relative to control; assay type: ADME; conditions: time 25 min
[14] = Oral bioavailability in Sprague-Dawley rat at 10 mg/kg measured up to 24 hrs by LC-MS/MS analysis; assay type: ADME, organism-based; conditions: in vivo
[15] = Stability in human liver microsomes assessed as parent compound remaining preincubated for 5 mins followed by NADPH addition and measured after 30 mins by LC-MS/MS analysis; assay type: ADME, Microsome; conditions: time 35 min, read-out: Stabilty
NCI-H929 [16] = assay: Induction of apoptosis in human NCI-H929 cells assessed as activation of caspase 3 after 4 hrs by luminescence based microplate reader assay; assay type: functional, cell-based; conditions: dose microM <=5, time 4.0 hrs
[17] = Toxicity in BALB/c nude mouse xenografted with human MV4-11 cells assessed as effect on heart at 60 mg/kg, po administered every two days for 14 days by hematoxyin-eosin staining based analysis; assay type: organism-based; conditions: in vivo, 336 h, time 14 day
[18] = Tmax in Sprague-Dawley rat at 10 mg/kg, po measured up to 24 hrs by LC-MS/MS analysis; assay type: ADME, organism-based; conditions: in vivo
SK-BR-3 = assay: Antiproliferative activity against human SK-BR-3 cells assessed as decrease in cell viability measured after 72 hrs by MTT assay; assay type: functional, cell-based; conditions: SK-BR-3, 72 h
[19] = Stability in rat liver microsomes assessed as parent compound remaining preincubated for 5 mins followed by NADPH addition and measured after 30 mins by LC-MS/MS analysis; assay type: ADME, Microsome; conditions: time 35 min, read-out: Stabilty
[20] = Half life in Sprague-Dawley rat at 3 mg/kg, iv measured up to 24 hrs by LC-MS/MS analysis; assay type: ADME, organism-based; conditions: in vivo
[21] = Stability of the compound in simulated gastric fluid assessed as parent compound remaining measured after 6 hrs; assay type: ADME; conditions: read-out: Stabilty
[22] = Clearance in Sprague-Dawley rat at 3 mg/kg, iv measured up to 24 hrs by LC-MS/MS analysis; assay type: ADME, organism-based; conditions: in vivo
[23] = Toxicity in BALB/c nude mouse xenografted with human MV4-11 cells assessed as effect on liver weight at 60 mg/kg, po administered every two days for 14 days; assay type: organism-based; conditions: in vivo, 336 h, time 14 day
MV4-11 [24] = assay: Induction of apoptosis in human MV4-11 cells xenografted in BALB/c nude mouse assessed as induction of PARP cleavage at 20 mg/kg, ip administered every two days for 14 days by Western blot analysis; assay type: functional, organism-based; conditions: time 14.0 day
MV4-11 [25] = assay: Induction of apoptosis in human MV4-11 cells xenografted in BALB/c nude mouse assessed as induction of PARP cleavage at 60 mg/kg, po administered every two days for 14 days by Western blot analysis; assay type: functional, organism-based; conditions: time 14.0 day

T2 sequence (Q07820 whole entry): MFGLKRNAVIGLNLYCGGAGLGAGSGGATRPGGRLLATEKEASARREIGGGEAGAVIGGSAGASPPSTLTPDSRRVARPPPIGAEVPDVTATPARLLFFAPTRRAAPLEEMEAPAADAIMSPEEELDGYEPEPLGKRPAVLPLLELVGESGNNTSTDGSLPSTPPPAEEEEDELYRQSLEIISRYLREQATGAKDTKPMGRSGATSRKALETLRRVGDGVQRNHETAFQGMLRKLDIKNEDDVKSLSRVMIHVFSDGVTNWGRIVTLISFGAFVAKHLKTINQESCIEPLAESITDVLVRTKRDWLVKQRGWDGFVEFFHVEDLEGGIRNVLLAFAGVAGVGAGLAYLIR
T1 sequence (P10415 whole entry, the tested form may be a part): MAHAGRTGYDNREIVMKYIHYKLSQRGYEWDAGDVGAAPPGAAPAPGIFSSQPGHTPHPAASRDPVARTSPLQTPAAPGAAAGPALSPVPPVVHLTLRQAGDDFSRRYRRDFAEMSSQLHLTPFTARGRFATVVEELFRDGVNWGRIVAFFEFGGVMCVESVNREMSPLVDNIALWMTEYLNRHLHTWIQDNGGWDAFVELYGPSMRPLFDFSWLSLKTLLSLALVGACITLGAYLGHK
Chain of CYP2C9 (P11712 whole entry): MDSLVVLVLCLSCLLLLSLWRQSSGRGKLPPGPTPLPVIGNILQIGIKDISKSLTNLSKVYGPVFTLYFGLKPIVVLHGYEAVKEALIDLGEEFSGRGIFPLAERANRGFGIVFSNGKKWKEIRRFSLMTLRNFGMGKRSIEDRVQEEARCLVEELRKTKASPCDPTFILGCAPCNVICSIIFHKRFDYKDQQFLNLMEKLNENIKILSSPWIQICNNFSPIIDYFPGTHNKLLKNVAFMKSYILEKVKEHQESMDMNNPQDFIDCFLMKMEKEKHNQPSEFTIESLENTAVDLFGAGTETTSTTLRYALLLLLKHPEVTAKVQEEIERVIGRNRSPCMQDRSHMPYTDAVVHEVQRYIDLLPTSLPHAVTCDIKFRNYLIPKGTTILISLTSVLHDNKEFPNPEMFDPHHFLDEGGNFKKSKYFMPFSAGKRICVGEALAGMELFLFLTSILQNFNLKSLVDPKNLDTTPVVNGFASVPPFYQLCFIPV
Chain of CYP3A4 (P08684 whole entry): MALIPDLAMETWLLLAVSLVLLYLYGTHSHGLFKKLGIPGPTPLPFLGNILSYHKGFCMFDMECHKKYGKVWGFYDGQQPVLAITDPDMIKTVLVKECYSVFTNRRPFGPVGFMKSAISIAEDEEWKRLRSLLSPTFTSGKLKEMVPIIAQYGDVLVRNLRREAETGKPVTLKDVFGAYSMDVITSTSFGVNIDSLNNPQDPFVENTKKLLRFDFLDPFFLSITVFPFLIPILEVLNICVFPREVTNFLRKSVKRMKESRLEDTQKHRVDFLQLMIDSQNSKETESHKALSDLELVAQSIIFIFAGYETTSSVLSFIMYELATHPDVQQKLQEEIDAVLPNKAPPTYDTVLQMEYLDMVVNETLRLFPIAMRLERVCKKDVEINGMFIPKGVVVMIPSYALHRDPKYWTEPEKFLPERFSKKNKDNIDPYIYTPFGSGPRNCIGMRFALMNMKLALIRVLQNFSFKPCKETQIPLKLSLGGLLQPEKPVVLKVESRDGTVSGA
Chain of Bcl-2-like protein 1 (Q07817 whole entry, the tested form may be a part): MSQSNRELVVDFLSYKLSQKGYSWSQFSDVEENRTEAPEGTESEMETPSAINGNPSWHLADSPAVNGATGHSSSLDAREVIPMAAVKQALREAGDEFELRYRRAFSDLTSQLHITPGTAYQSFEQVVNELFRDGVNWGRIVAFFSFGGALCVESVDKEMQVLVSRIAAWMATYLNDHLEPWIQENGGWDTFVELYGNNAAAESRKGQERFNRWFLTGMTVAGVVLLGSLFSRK

CC(=O)c1ccc(S(=O)(=O)c2c(C)c(C(=O)O)n(CCCOc3cc(C)c(Cl)c(C)c3)c2C)cc1
inhibition [1]: 10% | inhibition [2]: Dose-Dependent Effect | microsomal CLint [3]: 67.5 µL/min/mg | Kd [4]: > 10000 nM | Activity [5]: Non-Toxic | AUC(0-t) at 24 h [6]: 3290 ng·h/mL | Activity (MV4-11 [7]): Active | Selectivity ratio (Homo sapiens): > 40000 | inhibition at 20 min, 10 µM (CYP2C9): 26% | IC50 (NCI-H23): 3020 nM | Kd (Bcl-2-like protein 1): > 10000 nM | remaining at 6 h [8]: 85.2% | Activity [9]: Non-Toxic | microsomal CLint [10]: 31.4 µL/min/mg | Ki [11]: 20 nM | IC50 (NCI-H929 [12]): 360 nM | inhibition [13]: 1.57% | inhibition at 20 min, 10 µM (CYP3A4): 29.4% | bioavailability [14]: 41.3% | remaining at 0.5 h [15]: 64% | Activity (NCI-H929 [16]): Dose-Dependent Effect | Activity [17]: Non-Toxic | Tmax [18]: 0.5 h | IC50 (SK-BR-3): 2840 nM | remaining at 0.5 h [19]: 58.1% | half-life [20]: 2.3 h | remaining at 6 h [21]: 84.5% | clearance [22]: 15.2 mL/min/kg | Activity [23]: Non-Toxic | Activity (MV4-11 [24]): Active | Activity (MV4-11 [25]): Active
